Measured values published in ChEMBL document CHEMBL1127912, “The contribution to binding of the pyranoside substituents in the excised binding domain of FK-506” (Bioorg Med Chem Lett, 1994).

target: Peptidyl-prolyl cis-trans isomerase FKBP1A (Homo sapiens, UniProt P62942); experiment: Ability to displace radiolabeled FK-506 derivative from FK506 binding protein 12
Sequence (P62942 whole entry): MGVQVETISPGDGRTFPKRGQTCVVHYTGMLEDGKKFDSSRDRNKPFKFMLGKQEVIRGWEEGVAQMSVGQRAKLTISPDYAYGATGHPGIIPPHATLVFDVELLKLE

Question: `C=CCCC[C@H](OC(=O)[C@@H]1CCCCN1C(=O)C(=O)[C@]1(O)O[C@H](COC)[C@@H](OC)C[C@H]1C)/C(C)=C/[C@@H]1CC[C@@H](O)[C@H](OC)C1` was tested. Which Kd did it give?
Answer: The Kd was 0.01 µM.

Question: For `C=CCCC[C@H](OC(=O)[C@@H]1CCCCN1C(=O)C(=O)[C@@]1(O)CC[C@H](OC)[C@@H](COC)O1)/C(C)=C/[C@@H]1CC[C@@H](O)[C@H](OC)C1`, which Kd is on record?
Answer: Its Kd is 40 µM.

Question: Which Kd does the source give for `C=CCCC[C@H](OC(=O)[C@@H]1CCCCN1C(=O)C(=O)[C@@]1(O)CCCCO1)/C(C)=C/[C@@H]1CC[C@@H](O)[C@H](OC)C1` here?
Answer: Its Kd is 29 µM.
